According to ChEMBL document CHEMBL1201862, “PubChem BioAssay data set” (2004):
Activity calls are given as the source filed them.

Assays:
Aminopeptidase N = molecular target: T1, Aminopeptidase N (Plasmodium falciparum FcB1/Columbia, UniProt O96935); assay: malaria alanyl aminopeptidase activity blockers – biochemical, fluorogenic H-Leu-NHMec substrate, 1536-well (AID 1445); set-up: species or system Plasmodium falciparum 3D7, 3D7
T1 sequence (O96935 whole entry): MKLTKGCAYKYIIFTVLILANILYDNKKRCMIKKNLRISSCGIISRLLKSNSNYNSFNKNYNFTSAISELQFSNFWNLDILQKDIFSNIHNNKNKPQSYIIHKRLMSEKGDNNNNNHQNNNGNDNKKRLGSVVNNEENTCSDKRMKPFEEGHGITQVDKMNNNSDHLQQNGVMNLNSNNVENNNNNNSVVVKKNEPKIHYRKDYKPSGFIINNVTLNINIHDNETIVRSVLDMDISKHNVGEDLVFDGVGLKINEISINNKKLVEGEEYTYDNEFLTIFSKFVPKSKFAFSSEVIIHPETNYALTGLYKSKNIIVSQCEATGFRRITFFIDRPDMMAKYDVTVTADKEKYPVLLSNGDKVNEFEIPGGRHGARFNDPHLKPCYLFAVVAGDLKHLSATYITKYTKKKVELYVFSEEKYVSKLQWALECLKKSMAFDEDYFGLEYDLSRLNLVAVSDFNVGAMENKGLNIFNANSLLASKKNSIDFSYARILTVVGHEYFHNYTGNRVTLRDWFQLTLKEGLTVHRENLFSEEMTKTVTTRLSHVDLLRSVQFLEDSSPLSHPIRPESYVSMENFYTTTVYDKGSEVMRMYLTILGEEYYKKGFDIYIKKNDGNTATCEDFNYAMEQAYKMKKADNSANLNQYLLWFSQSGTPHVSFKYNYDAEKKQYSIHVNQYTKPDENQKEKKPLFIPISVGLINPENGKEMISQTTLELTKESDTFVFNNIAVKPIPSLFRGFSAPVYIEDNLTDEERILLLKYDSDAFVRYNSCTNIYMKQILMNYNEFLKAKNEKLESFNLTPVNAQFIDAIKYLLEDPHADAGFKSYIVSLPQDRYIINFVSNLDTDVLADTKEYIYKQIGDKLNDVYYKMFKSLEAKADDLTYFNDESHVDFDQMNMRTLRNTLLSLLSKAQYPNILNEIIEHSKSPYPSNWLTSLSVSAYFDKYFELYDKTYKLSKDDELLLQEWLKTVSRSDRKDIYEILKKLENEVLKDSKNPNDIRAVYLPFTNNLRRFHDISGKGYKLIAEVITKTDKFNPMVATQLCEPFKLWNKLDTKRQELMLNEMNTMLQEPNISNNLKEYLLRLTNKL

cells [1] = format: functional
cells [2] = assay: cells
[3] = NIH3T3 cell viability loss – ATP luminescence, mouse fibroblasts, counter-screen, dose response (AID 2010); format: functional, cell-based;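 further: cells exposed to compound for about 90 hours before reading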
[4] = Trypanosoma cruzi growth suppression in host cells – NIH3T3 host cells, beta-gal luminescence, confirmation (AID 2044); format: functional, cell-based;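 further: intracellular parasites grown in NIH/3T3 mouse fibroblasts as host cells; luminescent beta-galactosidase reporter signal from transgenic T. cruzi replicating inside host cells; inhibitors lower the luminescence signal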
cells [5] = format: functional, cell-based
[6] = A Cell Based Secondary Assay To Explore Cytotoxicity of Compounds that Sensitize Mycobacterium Tuberculosis to Beta-Lactam Antibiotics.; format: functional
[7] = fluconazole-exposed Candida albicans growth modulators – fluorescence, retest, confirmation (AID 2467); format: functional, cell-based
[8] = molecular target: T2, Endoribonuclease toxin MazF (Escherichia coli K-12, UniProt P0AE70); assay: substrate-only fluorescence increase artefacts – biochemical, single-stranded RNase substrate, counter-screen for MazEF activator project, dose response (AID 588502); format: functional
T2 sequence (P0AE70 whole entry): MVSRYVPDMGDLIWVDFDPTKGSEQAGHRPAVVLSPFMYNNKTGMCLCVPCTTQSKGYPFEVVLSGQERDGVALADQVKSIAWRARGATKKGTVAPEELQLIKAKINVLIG

[9] = molecular target: T3, Microphthalmia-associated transcription factor (Homo sapiens, UniProt O75030); assay: reducers of TRPM1 reporter luminescence, concentration series – cell-based, SK-MEL-5, cherry-picked, set 3, MITF inhibitor project, dose response (AID 493073); format: functional;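 further: SK-MEL-5 melanoma cells with luciferase driven by the MITF target TRPM1 promoter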
T3 sequence (O75030 whole entry): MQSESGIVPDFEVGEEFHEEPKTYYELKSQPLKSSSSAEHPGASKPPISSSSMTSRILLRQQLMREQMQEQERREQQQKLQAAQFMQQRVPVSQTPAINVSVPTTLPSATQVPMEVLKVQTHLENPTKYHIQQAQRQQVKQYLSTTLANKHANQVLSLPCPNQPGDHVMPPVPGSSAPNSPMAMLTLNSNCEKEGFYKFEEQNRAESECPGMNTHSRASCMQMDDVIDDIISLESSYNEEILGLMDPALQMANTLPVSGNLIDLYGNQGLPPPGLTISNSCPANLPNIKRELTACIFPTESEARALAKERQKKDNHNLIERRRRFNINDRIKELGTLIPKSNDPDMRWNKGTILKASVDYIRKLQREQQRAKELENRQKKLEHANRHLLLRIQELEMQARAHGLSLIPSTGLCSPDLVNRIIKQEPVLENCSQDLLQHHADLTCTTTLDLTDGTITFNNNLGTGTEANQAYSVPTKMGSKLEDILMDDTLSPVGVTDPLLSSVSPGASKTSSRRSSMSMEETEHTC

[10] = molecular target: T2, Endoribonuclease toxin MazF; assay: activation of MazEF endoribonuclease cleavage – biochemical, fluorescence, single-stranded RNA substrate, uHTS hits, dose response (AID 588481); format: functional
cells [11] = format: functional, cell-based; remark: listed apart in the source
[12] = NIH-3T3 fibroblast cytotoxicity, dose response, cytotoxicity control, cell-based, fluorescence, Alamar Blue, secondary assay (AID 2327); format: functional;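 further: NIH-3T3 mouse fibroblasts cultured with fluconazole at 8 µg/mL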
[13] = molecular target: Voltage-dependent T-type calcium channel subunit alpha-1H (Homo sapiens, UniProt O95180); format: functional;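 further: channel activity triggered by adding a high calcium stimulation buffer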
Chain of Voltage-dependent T-type calcium channel subunit alpha-1H (O95180 whole entry): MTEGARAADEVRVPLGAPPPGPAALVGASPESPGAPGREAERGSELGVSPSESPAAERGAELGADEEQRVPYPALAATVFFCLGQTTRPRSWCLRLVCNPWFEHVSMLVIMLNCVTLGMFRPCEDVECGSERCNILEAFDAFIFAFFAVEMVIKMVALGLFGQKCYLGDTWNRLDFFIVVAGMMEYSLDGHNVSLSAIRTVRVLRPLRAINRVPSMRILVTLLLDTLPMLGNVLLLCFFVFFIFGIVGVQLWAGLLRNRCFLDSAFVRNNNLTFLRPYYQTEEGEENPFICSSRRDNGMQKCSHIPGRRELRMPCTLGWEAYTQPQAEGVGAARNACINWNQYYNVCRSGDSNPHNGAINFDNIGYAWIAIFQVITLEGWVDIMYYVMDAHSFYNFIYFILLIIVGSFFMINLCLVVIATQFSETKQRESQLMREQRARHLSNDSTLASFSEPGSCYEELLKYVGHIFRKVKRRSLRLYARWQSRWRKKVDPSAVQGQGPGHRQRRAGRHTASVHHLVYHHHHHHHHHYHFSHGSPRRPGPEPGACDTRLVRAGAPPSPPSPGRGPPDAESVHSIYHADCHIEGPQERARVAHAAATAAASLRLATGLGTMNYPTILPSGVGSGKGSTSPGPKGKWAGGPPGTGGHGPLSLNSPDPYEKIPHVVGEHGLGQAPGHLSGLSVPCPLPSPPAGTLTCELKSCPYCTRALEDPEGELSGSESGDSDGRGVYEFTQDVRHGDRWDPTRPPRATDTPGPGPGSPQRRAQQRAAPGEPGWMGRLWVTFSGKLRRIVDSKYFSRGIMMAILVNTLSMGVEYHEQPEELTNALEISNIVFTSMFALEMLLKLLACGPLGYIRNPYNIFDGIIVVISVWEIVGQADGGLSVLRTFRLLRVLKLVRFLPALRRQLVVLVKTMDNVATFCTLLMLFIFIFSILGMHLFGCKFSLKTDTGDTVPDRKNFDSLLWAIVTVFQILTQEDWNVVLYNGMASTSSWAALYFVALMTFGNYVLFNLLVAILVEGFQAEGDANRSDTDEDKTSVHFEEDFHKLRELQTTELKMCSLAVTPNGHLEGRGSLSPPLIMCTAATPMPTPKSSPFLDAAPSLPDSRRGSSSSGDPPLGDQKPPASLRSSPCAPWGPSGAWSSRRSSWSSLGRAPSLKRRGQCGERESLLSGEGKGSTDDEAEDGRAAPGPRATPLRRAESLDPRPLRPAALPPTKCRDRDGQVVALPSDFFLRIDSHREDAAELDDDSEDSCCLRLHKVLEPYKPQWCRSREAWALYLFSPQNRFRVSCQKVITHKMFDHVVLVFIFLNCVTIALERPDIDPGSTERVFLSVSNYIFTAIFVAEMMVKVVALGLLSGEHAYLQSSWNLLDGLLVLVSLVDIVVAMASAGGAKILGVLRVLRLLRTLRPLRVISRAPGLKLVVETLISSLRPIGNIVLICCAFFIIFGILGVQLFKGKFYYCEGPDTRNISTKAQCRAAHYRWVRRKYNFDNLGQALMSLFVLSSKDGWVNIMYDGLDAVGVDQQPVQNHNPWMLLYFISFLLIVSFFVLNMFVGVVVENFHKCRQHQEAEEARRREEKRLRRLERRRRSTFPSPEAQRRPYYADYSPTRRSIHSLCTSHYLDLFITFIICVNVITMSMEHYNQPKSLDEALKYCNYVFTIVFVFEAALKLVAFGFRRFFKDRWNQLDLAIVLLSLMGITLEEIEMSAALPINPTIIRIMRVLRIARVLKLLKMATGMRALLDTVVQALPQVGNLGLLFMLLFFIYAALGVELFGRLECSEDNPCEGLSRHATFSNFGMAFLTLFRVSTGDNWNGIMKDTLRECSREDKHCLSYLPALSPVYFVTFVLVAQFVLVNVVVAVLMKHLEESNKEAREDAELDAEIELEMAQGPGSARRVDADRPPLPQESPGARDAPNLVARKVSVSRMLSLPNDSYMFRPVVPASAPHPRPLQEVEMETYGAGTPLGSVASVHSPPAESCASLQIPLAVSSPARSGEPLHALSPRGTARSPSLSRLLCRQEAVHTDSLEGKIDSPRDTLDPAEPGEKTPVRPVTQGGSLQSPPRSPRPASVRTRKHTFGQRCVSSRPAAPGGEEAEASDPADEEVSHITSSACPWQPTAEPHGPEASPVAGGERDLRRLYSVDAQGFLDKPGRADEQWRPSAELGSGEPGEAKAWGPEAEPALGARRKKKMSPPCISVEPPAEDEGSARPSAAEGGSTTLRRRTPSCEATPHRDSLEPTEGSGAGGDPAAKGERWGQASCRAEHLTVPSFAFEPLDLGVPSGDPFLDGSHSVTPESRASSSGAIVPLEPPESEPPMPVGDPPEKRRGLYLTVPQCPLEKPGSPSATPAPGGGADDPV

Cytochrome P450 2D6 = Cytochrome P450 2D6 (Homo sapiens, UniProt P10635);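 further: CYP2D6 member of a cytochrome P450 panel assay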
Chain of Cytochrome P450 2D6 (P10635 whole entry): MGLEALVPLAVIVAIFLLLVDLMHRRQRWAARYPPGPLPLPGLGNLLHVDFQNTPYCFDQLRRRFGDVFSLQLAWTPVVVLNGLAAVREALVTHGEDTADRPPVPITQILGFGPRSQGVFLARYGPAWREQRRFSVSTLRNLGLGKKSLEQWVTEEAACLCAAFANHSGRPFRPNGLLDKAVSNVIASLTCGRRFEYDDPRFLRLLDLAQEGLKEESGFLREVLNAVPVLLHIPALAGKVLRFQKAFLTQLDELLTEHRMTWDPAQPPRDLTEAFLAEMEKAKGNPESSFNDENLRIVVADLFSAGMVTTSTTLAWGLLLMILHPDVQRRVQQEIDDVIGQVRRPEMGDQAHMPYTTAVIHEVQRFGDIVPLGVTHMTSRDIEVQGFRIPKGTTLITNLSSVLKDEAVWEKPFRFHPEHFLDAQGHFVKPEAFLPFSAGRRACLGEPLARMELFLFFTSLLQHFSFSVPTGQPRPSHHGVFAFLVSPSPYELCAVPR

Cytochrome P450 2C9 = Cytochrome P450 2C9 (Homo sapiens, UniProt P11712)
Chain of Cytochrome P450 2C9 (P11712 whole entry, the tested form may be a part): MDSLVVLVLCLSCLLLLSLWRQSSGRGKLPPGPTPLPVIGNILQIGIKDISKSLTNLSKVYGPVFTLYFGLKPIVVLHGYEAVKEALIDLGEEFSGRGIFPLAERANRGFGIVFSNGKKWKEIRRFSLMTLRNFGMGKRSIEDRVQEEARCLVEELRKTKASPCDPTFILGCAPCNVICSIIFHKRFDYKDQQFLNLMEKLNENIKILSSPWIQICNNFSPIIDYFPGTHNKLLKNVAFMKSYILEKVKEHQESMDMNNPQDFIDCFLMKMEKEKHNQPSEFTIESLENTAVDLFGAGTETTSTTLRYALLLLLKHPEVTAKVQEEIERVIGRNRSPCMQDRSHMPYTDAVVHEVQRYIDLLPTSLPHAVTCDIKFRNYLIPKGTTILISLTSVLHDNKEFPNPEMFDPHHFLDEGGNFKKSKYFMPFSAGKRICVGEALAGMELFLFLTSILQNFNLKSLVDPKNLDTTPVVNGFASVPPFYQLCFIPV

[14] = molecular target: T4, RNA-binding protein pos-1 (Caenorhabditis elegans, UniProt G5EF15); assay: disruptors of C. elegans POS-1 RNA interaction – biochemical, fluorescence polarization, dose response (AID 1964);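 further: purified POS-1 fused to maltose binding protein made in E. coli; potency of compounds blocking POS-1 binding to fluorescent RNA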
T4 sequence (G5EF15 whole entry): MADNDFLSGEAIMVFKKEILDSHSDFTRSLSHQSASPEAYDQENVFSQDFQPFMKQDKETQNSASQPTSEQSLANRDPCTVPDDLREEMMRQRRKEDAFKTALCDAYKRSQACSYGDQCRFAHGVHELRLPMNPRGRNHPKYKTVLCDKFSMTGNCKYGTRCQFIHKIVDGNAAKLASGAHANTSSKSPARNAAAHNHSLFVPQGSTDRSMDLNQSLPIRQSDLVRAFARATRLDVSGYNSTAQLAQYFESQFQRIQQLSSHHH

H4 = assay: Luminescence Cell-Based Dose Response HTS to Identify Activators of 5'UTR Stem-Loop Driven Prion Protein mRNA Translation in H4 Neuroglioblastoma Cells. [Related pubchem assays: 1829 (Project Summary), 1814 (Primary HTS)]; format: functional; details: Homo sapiens
[15] = molecular target: T5, Zinc finger protein mex-5 (Caenorhabditis elegans, UniProt Q9XUB2); assay: potency of MEX-5 RNA-binding blockers – biochemical, C. elegans, fluorescence polarization, dose response (AID 1960)
T5 sequence (Q9XUB2 whole entry): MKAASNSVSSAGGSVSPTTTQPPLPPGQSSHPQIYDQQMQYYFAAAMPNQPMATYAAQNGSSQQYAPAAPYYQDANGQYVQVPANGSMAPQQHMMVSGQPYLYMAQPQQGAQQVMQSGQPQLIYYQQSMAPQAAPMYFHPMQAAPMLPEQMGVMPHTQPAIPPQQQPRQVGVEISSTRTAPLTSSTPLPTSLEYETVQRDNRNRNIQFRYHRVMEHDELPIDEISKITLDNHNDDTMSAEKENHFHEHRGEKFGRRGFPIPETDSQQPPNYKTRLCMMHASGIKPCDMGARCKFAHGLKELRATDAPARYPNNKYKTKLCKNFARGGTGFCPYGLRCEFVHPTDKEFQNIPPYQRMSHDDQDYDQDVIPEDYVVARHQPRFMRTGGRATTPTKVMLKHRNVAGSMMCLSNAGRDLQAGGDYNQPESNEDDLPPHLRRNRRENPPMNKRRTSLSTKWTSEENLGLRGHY

[16] = Luminescence Cell-Based Dose Confirmation HTS to Identify Activators of 5'UTR Stem-Loop Driven Alpha-Synuclein mRNA Translation in H4 Neuroglioblastoma Cells. [Related pubchem assays: 1829 (Project Summary), 1814 (Primary HTS)]; format: functional
[17] = Luminescence Cell-Based Dose Response HTS to Identify Activators of Luciferase Translation or Activity in H4 […] Cells. [Related pubchem assays: 1829 (Project Summary), 1814 (Primary HTS)]; format: functional

Cc1ccc(CSc2nnc(SCC(=O)N/N=C/c3ccccc3OCC(=O)O)s2)cc1
IC50 (Aminopeptidase N): 30.6 µM (active)

O=C(c1ccc([N+](=O)[O-])o1)N1CCc2ccccc2C1
IC50 (cells [1]): 0.45 µM (active)
EC50 (cells [2]): 0.042 µM (active)
EC50 [3]: > 60 µM (not active)
EC50 [4]: < 0.1 µM (active)

CC(C)Oc1cccc(C(=O)C2CCCN(Cc3ccc(Oc4ncccn4)cc3)C2)c1 (stereo not given)
EC50 (cells [2]): 0.081 µM (active)
EC50 [3]: > 60 µM (not active)
EC50 [4]: < 0.1 µM (active)

O=C(Cn1nnc2ccccc2c1=O)N[C@@H](Cc1c[nH]c2ccccc12)C(=O)O
IC50 (Aminopeptidase N): 71.6 µM (active)

Cc1ccc(-c2nn(C)c(=O)c3ccccc23)cc1CNC(=O)c1ccco1
IC50 (Aminopeptidase N): 21.1 µM (active)

O=C(CSCC(=O)Nc1ccccc1)N/N=C/c1c(O)ccc2ccccc12
EC50 (cells [5]): 9.25 µM (active)
CC50 [6]: 6.22 µM (active)
EC50 [7]: > 38 µM (not active)
EC50 [8]: > 99 µM (inactive)
AC50 [9]: 3.34 µM (active)
EC50 [10]: > 99 µM (inactive)
EC50 (cells [11]): > 350 µM (not active)
EC50 [12]: > 160 µM (inactive)

CCc1nnc(NS(=O)(=O)c2ccc(NC(=S)NC(=O)c3ccc(OC)cc3)cc2)s1
IC50 (Aminopeptidase N): 60.5 µM (active)

Nc1nonc1C(=O)N/N=C/c1ccc(-c2ccc(Cl)c(C(=O)O)c2)o1
IC50 (Aminopeptidase N): 43.8 µM (active)

Cc1nn(-c2ccccc2)c(Cl)c1/C=C1\SC(=S)NC1=O
IC50 (Aminopeptidase N): 46.8 µM (active)

COc1ccccc1OCc1nc(Cc2ccc(Cl)cc2)no1
EC50 [13]: 7.9 µM (active)

O=C(CCCn1cnc([N+](=O)[O-])n1)Nc1ccc(Cl)c(Cl)c1
AC50 (Cytochrome P450 2D6): 15.8 µM (inconclusive)
EC50 (cells [2]): 0.054 µM (active)
AC50 (Cytochrome P450 2C9): 15.8 µM (inconclusive)
EC50 [3]: > 60 µM (not active)
EC50 [4]: < 0.1 µM (active)

O=C(CCCc1c[nH]c2ccccc12)NCc1ccc2c(c1)OCO2
EC50 [13]: 2.31 µM (active)

CCOc1cccc(CN2CCCC(N3CCc4cc(OC)c(OC)cc4C3)C2)c1O (stereo not given)
EC50 (cells [2]): 0.084 µM (active)
EC50 [3]: > 60 µM (not active)
EC50 [4]: < 0.1 µM (active)

CC1CCN(S(=O)(=O)c2ccc(NC(=O)Cc3ccccc3)cc2)CC1
EC50 [13]: 5.25 µM (active)

CCN1C(=O)/C(=C2/C=Cc3ccccc3N2C)OC1=S
EC50 [14]: 55.8 µM (active)
EC50 (H4): 39.4 µM (active)
EC50 [15]: 3.94 µM (inconclusive)
EC50 [8]: > 99 µM (inactive)
EC50 [16]: 2.39 µM (active)
EC50 [10]: > 99 µM (inactive)
EC50 [17]: 4.49 µM (active)

Cc1ccc(-n2nnnc2-c2cnc(N3CCCC3)nc2C(F)(F)F)cc1
EC50 [13]: 8.9 µM (active)
